# What was measured:
# Format in all cases: functional
# cells [1] = conditions: Homo sapiens, Hs-578T
# Description: Growth inhibition of human Hs 578T cells assessed as cell growth at 10 uM by SRB assay
# NCI-H23 = assay: cells; conditions: Homo sapiens
# Description: Growth inhibition of human NCI-H23 cells assessed as drug level required for 50% reduction in net protein increase by SRB assay relative to control
# MOLT-4 [2] = assay: Cytotoxicity against human MOLT4 cells by SRB assay; conditions: read-out: LC50 (the source's name)
# SF-295 [3] = assay: cells; conditions: Homo sapiens
# Description: Growth inhibition of human SF295 cells assessed as drug level required for 50% reduction in net protein increase by SRB assay relative to control
# IGROV-1 = assay: cells; conditions: Homo sapiens
# Description: Growth inhibition of human IGROV1 cells assessed as drug level required for 50% reduction in net protein increase by SRB assay relative to control
# NCI/ADR-RES = assay: cells; conditions: Homo sapiens
# Description: Growth inhibition of human NCI/ADR-RES cells assessed as cell growth at 10 uM by SRB assay
# TK-10 = assay: cells; conditions: Homo sapiens
# Description: Growth inhibition of human TK10 cells assessed as cell growth at 10 uM by SRB assay
# MDA-MB-435 [4] = assay: cells; conditions: Homo sapiens
# Description: Growth inhibition of human MDA-MB-435 cells assessed as cell growth at 10 uM by SRB assay
# NCI-H522 [5] = assay: Cytotoxicity against human NCI-H522 cells by SRB assay; conditions: read-out: LC50 (the source's name)
# HOP-62 = assay: Cytotoxicity against human HOP62 cells by SRB assay; conditions: read-out: LC50 (the source's name)
# NCI-H322M = assay: cells; conditions: Homo sapiens
# Description: Growth inhibition of human NCI-H322M cells assessed as drug level required for 50% reduction in net protein increase by SRB assay relative to control
# OVCAR-8 [6] = assay: cells; conditions: Homo sapiens
# Description: Growth inhibition of human OVCAR8 cells assessed as drug level required for 50% reduction in net protein increase by SRB assay relative to control
# SF-268 = assay: cells; conditions: Homo sapiens
# Description: Growth inhibition of human SF268 cells assessed as cell growth at 10 uM by SRB assay
# Malme-3M [7] = assay: cells; conditions: Homo sapiens
# Description: Growth inhibition of human MALME-3M cells assessed as cell growth at 10 uM by SRB assay
# OVCAR-5 = assay: cells; conditions: Homo sapiens
# Description: Growth inhibition of human OVCAR5 cells assessed as drug level required for 50% reduction in net protein increase by SRB assay relative to control
# MDA-MB-435 [8] = assay: Cytotoxicity against human MDA-MB-435 cells by SRB assay; conditions: read-out: LC50 (the source's name)
# SNB-75 = assay: cells; conditions: Homo sapiens
# Description: Growth inhibition of human SNB75 cells assessed as cell growth at 10 uM by SRB assay
# SK-MEL-2 = assay: cells; conditions: Homo sapiens
# Description: Growth inhibition of human SK-MEL-2 cells assessed as drug level required for 50% reduction in net protein increase by SRB assay relative to control
# NCI-H522 [9] = assay: cells; conditions: Homo sapiens
# Description: Growth inhibition of human NCI-H522 cells assessed as cell growth at 10 uM by SRB assay
# cells [10] = conditions: Homo sapiens, CAKI
# Description: Growth inhibition of human CAKI cells assessed as drug level required for 50% reduction in net protein increase by SRB assay relative to control
# MDA-MB-468 = assay: cells; conditions: Homo sapiens
# Description: Growth inhibition of human MDA-MB-468 cells assessed as drug level required for 50% reduction in net protein increase by SRB assay relative to control
# SF-295 [11] = assay: cells; conditions: Homo sapiens; remark: listed apart in the source
# Description: Growth inhibition of human SF295 cells assessed as cell growth at 10 uM by SRB assay
# OVCAR-3 [12] = assay: cells; conditions: Homo sapiens
# Description: Growth inhibition of human OVCAR-3 cells assessed as cell growth at 10 uM by SRB assay
# NCI-H226 [13] = assay: cells; conditions: Homo sapiens
# Description: Growth inhibition of human NCI-H226 cells assessed as drug level required for 50% reduction in net protein increase by SRB assay relative to control
# SK-MEL-28 [14] = assay: cells; conditions: Homo sapiens
# Description: Growth inhibition of human SK-MEL-28 cells assessed as cell growth at 10 uM by SRB assay
# OVCAR-8 [15] = assay: cells; conditions: Homo sapiens; remark: listed apart in the source
# Description: Growth inhibition of human OVCAR8 cells assessed as cell growth at 10 uM by SRB assay
# RXF 393 [16] = assay: cells; conditions: Homo sapiens
# Description: Growth inhibition of human RFX393 cells assessed as cell growth at 10 uM by SRB assay
# A498 = assay: cells; conditions: Homo sapiens
# Description: Growth inhibition of human A498 cells assessed as drug level required for 50% reduction in net protein increase by SRB assay relative to control
# HCT-116 [17] = assay: Cytotoxicity against human HCT116 cells by SRB assay; conditions: read-out: LC50 (the source's name)
# SK-OV-3 = assay: cells; conditions: Homo sapiens
# Description: Growth inhibition of human SKOV3 cells assessed as drug level required for 50% reduction in net protein increase by SRB assay relative to control
# PC-3 [18] = assay: cells; conditions: Homo sapiens
# Description: Growth inhibition of human PC3 cells assessed as drug level required for 50% reduction in net protein increase by SRB assay relative to control
# MCF7 [19] = assay: cells; conditions: Homo sapiens
# Description: Growth inhibition of human MCF7 cells assessed as drug level required for 50% reduction in net protein increase by SRB assay relative to control
# BT-549 = assay: cells; conditions: Homo sapiens
# Description: Growth inhibition of human BT549 cells assessed as drug level required for 50% reduction in net protein increase by SRB assay relative to control
# MDA-MB-231 = assay: cells; conditions: Homo sapiens
# Description: Growth inhibition of human MDA-MB-231 cells assessed as drug level required for 50% reduction in net protein increase by SRB assay relative to control
# COLO 205 [20] = assay: Cytotoxicity against human COLO205 cells by SRB assay; conditions: read-out: LC50 (the source's name)
# OVCAR-3 [21] = assay: Cytotoxicity against human OVCAR-3 cells by SRB assay; conditions: read-out: LC50 (the source's name)
# KM12 [22] = assay: Cytotoxicity against human KM12 cells by SRB assay; conditions: read-out: LC50 (the source's name)
# HT-29 [23] = assay: Cytotoxicity against human HT-29 cells by SRB assay; conditions: read-out: LC50 (the source's name)
# SF-295 [24] = assay: Cytotoxicity against human SF295 cells by SRB assay; conditions: read-out: LC50 (the source's name)
# PC-3 [25] = assay: Cytotoxicity against human PC3 cells by SRB assay; conditions: read-out: LC50 (the source's name)
# K562 = assay: cells; conditions: Homo sapiens
# Description: Growth inhibition of human K562 cells assessed as cell growth at 10 uM by SRB assay
# KM12 [26] = assay: cells; conditions: Homo sapiens
# Description: Growth inhibition of human KM12 cells assessed as drug level required for 50% reduction in net protein increase by SRB assay relative to control
# 786-0 = assay: cells; conditions: Homo sapiens
# Description: Growth inhibition of human 786-0 cells assessed as drug level required for 50% reduction in net protein increase by SRB assay relative to control
# NCI-H522 [27] = assay: cells; conditions: Homo sapiens; remark: listed apart in the source
# Description: Growth inhibition of human NCI-H522 cells assessed as drug level required for 50% reduction in net protein increase by SRB assay relative to control
# MDA-MB-435 [28] = assay: cells; conditions: Homo sapiens; remark: listed apart in the source
# Description: Growth inhibition of human MDA-MB-435 cells assessed as drug level required for 50% reduction in net protein increase by SRB assay relative to control
# HT-29 [29] = assay: cells; conditions: Homo sapiens
# Description: Growth inhibition of human HT-29 cells assessed as drug level required for 50% reduction in net protein increase by SRB assay relative to control
# UACC-257 = assay: cells; conditions: Homo sapiens
# Description: Growth inhibition of human UACC257 cells assessed as drug level required for 50% reduction in net protein increase by SRB assay relative to control
# OVCAR-8 [30] = assay: Cytotoxicity against human OVCAR8 cells by SRB assay; conditions: read-out: LC50 (the source's name)
# HCT-116 [31] = assay: cells; conditions: Homo sapiens
# Description: Growth inhibition of human HCT116 cells assessed as drug level required for 50% reduction in net protein increase by SRB assay relative to control
# RXF 393 [32] = assay: cells; conditions: Homo sapiens; remark: listed apart in the source
# Description: Growth inhibition of human RFX393 cells assessed as drug level required for 50% reduction in net protein increase by SRB assay relative to control
# SNB-19 [33] = assay: cells; conditions: Homo sapiens
# Description: Growth inhibition of human SNB19 cells assessed as drug level required for 50% reduction in net protein increase by SRB assay relative to control
# T47D = assay: Cytotoxicity against human T47D cells by SRB assay; conditions: read-out: LC50 (the source's name)
# MOLT-4 [34] = assay: cells; conditions: Homo sapiens
# Description: Growth inhibition of human MOLT4 cells assessed as drug level required for 50% reduction in net protein increase by SRB assay relative to control
# [35] = Cytotoxicity against human CAKI cells by SRB assay; conditions: read-out: LC50 (the source's name)
# cells [36] = conditions: Homo sapiens, CAKI; remark: listed apart in the source
# Description: Growth inhibition of human CAKI cells assessed as cell growth at 10 uM by SRB assay
# COLO 205 [37] = assay: cells; conditions: Homo sapiens
# Description: Growth inhibition of human COLO205 cells assessed as cell growth at 10 uM by SRB assay
# SW-620 = assay: Cytotoxicity against human SW620 cells by SRB assay; conditions: read-out: LC50 (the source's name)
# ACHN = assay: cells; conditions: Homo sapiens
# Description: Growth inhibition of human ACHN cells assessed as drug level required for 50% reduction in net protein increase by SRB assay relative to control
# NCI-H226 [38] = assay: cells; conditions: Homo sapiens; remark: listed apart in the source
# Description: Growth inhibition of human NCI-H226 cells assessed as cell growth at 10 uM by SRB assay
# Malme-3M [39] = assay: cells; conditions: Homo sapiens; remark: listed apart in the source
# Description: Growth inhibition of human MALME-3M cells assessed as drug level required for 50% reduction in net protein increase by SRB assay relative to control
# HCT-15 = assay: cells; conditions: Homo sapiens
# Description: Growth inhibition of human HCT15 cells assessed as cell growth at 10 uM by SRB assay
# SN12C = assay: cells; conditions: Homo sapiens
# Description: Growth inhibition of human SN12C cells assessed as cell growth at 10 uM by SRB assay
# U-251 = assay: cells; conditions: Homo sapiens
# Description: Growth inhibition of human U251 cells assessed as cell growth at 10 uM by SRB assay
# SK-MEL-28 [40] = assay: Cytotoxicity against human SK-MEL-28 cells by SRB assay; conditions: read-out: LC50 (the source's name)
# MOLT-4 [41] = assay: cells; conditions: Homo sapiens; remark: listed apart in the source
# Description: Growth inhibition of human MOLT4 cells assessed as cell growth at 10 uM by SRB assay
# MCF7 [42] = assay: Cytotoxicity against human MCF7 cells by SRB assay; conditions: read-out: LC50 (the source's name)
# SNB-19 [43] = assay: Cytotoxicity against human SNB19 cells by SRB assay; conditions: read-out: LC50 (the source's name)
# NCI-H460 = assay: cells; conditions: Homo sapiens
# Description: Growth inhibition of human NCI-H460 cells assessed as drug level required for 50% reduction in net protein increase by SRB assay relative to control
# M14 [44] = assay: cells; conditions: Homo sapiens
# Description: Growth inhibition of human M14 cells assessed as cell growth at 10 uM by SRB assay
# UACC-62 = assay: cells; conditions: Homo sapiens
# Description: Growth inhibition of human UACC62 cells assessed as drug level required for 50% reduction in net protein increase by SRB assay relative to control
# M14 [45] = assay: Cytotoxicity against human M14 cells by SRB assay; conditions: read-out: LC50 (the source's name)
# SR = assay: Cytotoxicity against human SR cells by SRB assay; conditions: read-out: LC50 (the source's name)
smiles,measurement,setting,value
CCCCCCCC[N+](C)(CCCCCCCC)CCCCCCCC.O=S(=O)([N-]S(=O)(=O)C(F)(F)F)C(F)(F)F,growth at 10 µM,cells [1],-66.7%
same,GI50,NCI-H23,308 nM
same,CC50,MOLT-4 [2],4.89 µM
same,GI50,SF-295 [3],333 nM
same,GI50,IGROV-1,388 nM
same,growth at 10 µM,NCI/ADR-RES,-100%
same,growth at 10 µM,TK-10,-100%
same,growth at 10 µM,MDA-MB-435 [4],-90.8%
same,CC50,NCI-H522 [5],5.4 µM
same,CC50,HOP-62,7.77 µM
same,GI50,NCI-H322M,1810 nM
same,GI50,OVCAR-8 [6],468 nM
same,growth at 10 µM,SF-268,-100%
same,growth at 10 µM,Malme-3M [7],-94.1%
same,GI50,OVCAR-5,1240 nM
same,CC50,MDA-MB-435 [8],5.7 µM
same,growth at 10 µM,SNB-75,-100%
same,GI50,SK-MEL-2,356 nM
same,growth at 10 µM,NCI-H522 [9],-99.9%
same,GI50,cells [10],84 nM
same,GI50,MDA-MB-468,119 nM
same,growth at 10 µM,SF-295 [11],-94.8%
same,growth at 10 µM,OVCAR-3 [12],-100%
same,GI50,NCI-H226 [13],478 nM
same,growth at 10 µM,SK-MEL-28 [14],-100%
same,growth at 10 µM,OVCAR-8 [15],-100%
same,growth at 10 µM,RXF 393 [16],-100%
same,GI50,A498,1820 nM
same,CC50,HCT-116 [17],9.9 µM
same,GI50,SK-OV-3,565 nM
same,GI50,PC-3 [18],282 nM
same,GI50,MCF7 [19],317 nM
same,GI50,BT-549,421 nM
same,GI50,MDA-MB-231,345 nM
same,CC50,COLO 205 [20],> 100 µM
same,CC50,OVCAR-3 [21],4.18 µM
same,CC50,KM12 [22],5.31 µM
same,CC50,HT-29 [23],5.17 µM
same,CC50,SF-295 [24],4.57 µM
same,CC50,PC-3 [25],3.99 µM
same,growth at 10 µM,K562,86.9%
same,GI50,KM12 [26],310 nM
same,GI50,786-0,415 nM
same,GI50,NCI-H522 [27],287 nM
same,GI50,MDA-MB-435 [28],335 nM
same,GI50,HT-29 [29],305 nM
same,GI50,UACC-257,411 nM
same,CC50,OVCAR-8 [30],5.88 µM
same,GI50,HCT-116 [31],319 nM
same,GI50,RXF 393 [32],464 nM
same,GI50,SNB-19 [33],587 nM
same,CC50,T47D,> 100 µM
same,GI50,MOLT-4 [34],324 nM
same,CC50,[35],3.28 µM
same,growth at 10 µM,cells [36],-98.6%
same,growth at 10 µM,COLO 205 [37],-60.6%
same,CC50,SW-620,10 µM
same,GI50,ACHN,630 nM
same,growth at 10 µM,NCI-H226 [38],-86.2%
same,GI50,Malme-3M [39],290 nM
same,growth at 10 µM,HCT-15,-75%
same,growth at 10 µM,SN12C,-86.5%
same,growth at 10 µM,U-251,-75%
same,CC50,SK-MEL-28 [40],7.18 µM
same,growth at 10 µM,MOLT-4 [41],37.4%
same,CC50,MCF7 [42],4.02 µM
same,CC50,SNB-19 [43],8.25 µM
same,GI50,NCI-H460,362 nM
same,growth at 10 µM,M14 [44],-91.7%
same,GI50,UACC-62,335 nM
same,CC50,M14 [45],9.19 µM
same,CC50,SR,5.13 µM
